The values below come from US11098027B2, “Therapeutic heterocyclic compounds” (Gilead Sciences, Inc., priority 2018, dated 2021).

The assay has as its target T1, IDO1 (Homo sapiens, UniProt P14902).
T1 construct: HeLa cells were treated with a test compound in the presence of IFNγ, which induces IDO1 expression; host or cells: H1-HeLa cells, IDO1 induced with IFNγ
In words: Cell-based (HeLa) assay for measurement of IDO1 inhibition (kynurenine levels in supernatant). As to conditions: H1-HeLa cells, IDO1 induced with IFNγ, 48 hour incubation, kynurenine read by absorbance at 480 nm; geometric mean of a minimum of four determinations. On the procedure: Example B-1. Cell-Based (HeLa) Assay for Measurement of IDO1 Inhibition
To measure IDO1 inhibition in tissue culture, HeLa cells were treated with a test compound in the presence of IFNγ, which induces IDO1 expression. Following incubation, cell supernatants were assayed for kynurenine levels, an indicator of IDO1 activity.
The following day, the test compounds were added in DMSO (0.5% final) at various concentrations, and IDO1 was inducibly expressed by the addition of 50 uL/well of 50 ng/mL of INFγ (Peprotech #300-02) in cell plating media. As a positive control, 50 uL of the cell plating media without IFNγ was added to several wells. Following a 48 hour incubation, the plates were spun down at 1,200 RPM for 5 min at 10° C. 65 μL/well of the supernatant was then transferred to new 384-well plates (Thermo #262160) that contained 10 uL/well of 30% TCA (Sigma # TO699), and the plates were sealed and incubated at 60° C. for 30 min. The plates were then centrifuged for 15 min at 2,000 RPM at 10° C. 40 μL/well of the supernatant was transferred to new 384-well plates (Thermo #262160) and was reacted with 40 μL/well of 2% (w/v) p-dimethlyaminobenzaldehyde (Sigma #156417) in glacial acetic acid (Sigma #A6283). The reaction was incubated at room temperature for 10 min and absorbance at 480 nm was read using a PerkinElmer Envision plate reader.
Data in Table 1 were normalized based on positive (−IFNγ) and negative (+IFNγ) controls and EC50 values were calculated from the fit of the dose—response curves to a four-parameter equation. All EC50 values represent geometric mean values of a minimum of four determinations. These assays generally produced results within 2-fold of the reported mean

T1 sequence (P14902 whole entry): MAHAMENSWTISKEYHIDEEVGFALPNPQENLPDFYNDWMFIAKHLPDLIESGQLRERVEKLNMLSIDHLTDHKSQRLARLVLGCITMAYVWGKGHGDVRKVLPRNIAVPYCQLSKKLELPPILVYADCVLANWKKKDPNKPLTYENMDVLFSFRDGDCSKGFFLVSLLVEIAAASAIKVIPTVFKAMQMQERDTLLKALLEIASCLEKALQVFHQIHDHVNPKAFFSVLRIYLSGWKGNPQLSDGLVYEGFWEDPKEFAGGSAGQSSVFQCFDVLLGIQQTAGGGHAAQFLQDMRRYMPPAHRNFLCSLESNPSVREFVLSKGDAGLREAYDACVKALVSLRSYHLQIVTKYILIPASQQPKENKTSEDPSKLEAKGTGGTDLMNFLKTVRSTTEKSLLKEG

As a reminder, the EC50 is the midpoint of the concentration-response curve. A lower EC50 goes with greater potency. With `Cc1ccc(-c2cccc3c2C(C)(C)C(=O)N3c2ncccn2)cc1C(=O)Nc1ccc(F)cc1` [Example 9, 5-(3,3-dimethyl-2-oxo-1-(pyrimidin-2-yl)indolin-4-yl)-N-(4-fluorophenyl)-2-methylbenzamide], a half-maximal response (EC50) required 33 nM.

`CC1(C)C(=O)N(c2cccnc2)c2nccc(-c3ccc(C(F)(F)F)c(C(=O)Nc4ccccc4)c3)c21` [Example 42, 5-(3,3-dimethyl-2-oxo-1-(pyridin-3-yl)-2,3-dihydro-1H-pyrrolo[2,3-b]pyridin-4-yl)-N-phenyl-2-(trifluoromethyl)benzamide]: the response was half-maximal at 37 nM (EC50).

Compound `CC1(C)C(=O)N(c2cccnc2)c2cccc(-c3cnc(C(F)(F)F)c(C(=O)Nc4ccc(F)cc4)c3)c21` [Example 36, 5-(3,3-dimethyl-2-oxo-1-(pyridin-3-yl)indolin-4-yl)-N-(4-fluorophenyl)-2-(trifluoromethyl)nicotinamide] returned an EC50 of 26 nM.

The compound `Cc1ncc(-c2cccc3c2C(C)(C)C(=O)N3c2ncccn2)cc1C(=O)Nc1ccc(F)cc1` [Example 14, 5-(3,3-dimethyl-2-oxo-1-(pyrimidin-2-yl)indolin-4-yl)-N-(4-fluorophenyl)-2-methylnicotinamide] showed an EC50 of 105 nM.

As for `CC1(C)C(=O)N(c2cc[nH]n2)c2cccc(-c3ccc(C(F)(F)F)c(C(=O)Nc4ccc(F)cc4)c3)c21` [Example 5, 5-(3,3-dimethyl-2-oxo-1-(1H-pyrazol-3-yl)indolin-4-yl)-N-(4-fluorophenyl)-2-(trifluoromethyl)benzamide], the response was half-maximal at 13 nM (EC50).

The compound `CC1(C)C(=O)N(c2ccncc2)c2cccc(-c3ccc(C(F)(F)F)c(C(=O)Nc4ccc(F)cc4)c3)c21` [Example 8, 5-(3,3-dimethyl-2-oxo-1-(pyridin-4-yl)indolin-4-yl)-N-(4-fluorophenyl)-2-(trifluoromethyl)benzamide] displayed an EC50 of 24 nM.

For `CC1(C)C(=O)N(c2ccccn2)c2nccc(-c3cnc(C(F)(F)F)c(C(=O)Nc4ccc(F)c(F)c4)c3)c21` [Example 43, N-(3,4-difluorophenyl)-5-(3,3-dimethyl-2-oxo-1-(pyridin-2-yl)-2,3-dihydro-1H-pyrrolo[2,3-b]pyridin-4-yl)-2-(trifluoromethyl)nicotinamide], the EC50 was found to be 103 nM.

The compound `CC1(C)Oc2c(-c3ccc(C(F)(F)F)c(C(=O)Nc4ccc(F)cc4)c3)cccc2N(c2ccccn2)C1=O` [Example 52, 5-(2,2-dimethyl-3-oxo-4-(pyridin-2-yl)-3,4-dihydro-2H-benzo[b][1,4]oxazin-8-yl)-N-(4-fluorophenyl)-2-(trifluoromethyl)benzamide] displayed an EC50 of 491 nM.

For `CC1(C)C(=O)N(c2ncccn2)c2cccc(-c3ccc(C(F)(F)F)c(C(=O)Nc4ccnnc4)c3)c21` [Example 46, 5-(3,3-dimethyl-2-oxo-1-(pyrimidin-2-yl)indolin-4-yl)-N-(pyridazin-4-yl)-2-(trifluoromethyl)benzamide], it took 283 nM to reach a half-maximal effect (EC50).

With `CC1(C)C(=O)N(c2ccncn2)c2cccc(-c3ccc(C(F)(F)F)c(C(=O)Nc4ccc(F)cc4)c3)c21` [Example 3, 5-(3,3-dimethyl-2-oxo-1-(pyrimidin-4-yl)indolin-4-yl)-N-(4-fluorophenyl)-2-(trifluoromethyl)benzamide], the EC50 stood at 11 nM.

`CC1(C)Oc2c(-c3ccc(C(F)(F)F)c(C(=O)Nc4ccc(F)cc4)c3)cccc2N(c2cnccn2)C1=O` [Example 55, 5-(2,2-dimethyl-3-oxo-4-(pyrazin-2-yl)-3,4-dihydro-2H-benzo[b][1,4]-oxazin-8-yl)-N-(4-fluorophenyl)-2-(trifluoromethyl)benzamide] displayed an EC50 of 101 nM.

Take `CC1(C)C(=O)N(c2ncccn2)c2cccc(-c3ccc(C(F)(F)F)c(C(=O)Nc4ccc(F)cc4)n3)c21` [Example 44]: a half-maximal effect (EC50) was put at 113 nM.

In turn, `CC1(C)C(=O)N(c2cncc(F)c2)c2cccc(-c3cnc(C(F)(F)F)c(C(=O)Nc4ccc(F)cc4)c3)c21` [Example 20, N-(4-fluorophenyl)-5-(1-(5-fluoropyridin-3-yl)-3,3-dimethyl-2-oxoindolin-4-yl)-2-(trifluoromethyl)nicotinamide] registered a 50% effective concentration (EC50) of 36 nM.

In the case of `Cn1cc(N2C(=O)C(C)(C)c3c(-c4ccc(C(F)(F)F)c(C(=O)Nc5ccc(F)cc5)c4)cccc32)cn1` [Example 23, 5-(3,3-dimethyl-1-(1-methyl-1H-pyrazol-4-yl)-2-oxoindolin-4-yl)-N-(4-fluorophenyl)-2-(trifluoromethyl)benzamide], the midpoint of the response, the EC50, lay at 311 nM.

`Cc1ccc(-c2cccc3c2[nH]c(=O)n3-c2cccc(F)c2F)cc1C(=O)Nc1ccc(F)cc1` [Example 22, 5-(1-(2,3-difluorophenyl)-2-oxo-2,3-dihydro-1H-benzo[d]imidazol-4-yl)-N-(4-fluorophenyl)-2-methylbenzamide] came in with an EC50 of 62 nM.

Compound `Cc1ccc(-c2cccc3c2C(C)(C)C(=O)N3Cc2ncccn2)cc1C(=O)Nc1ccc(F)cc1` [Example 53, 5-(3,3-dimethyl-2-oxo-1-(pyrimidin-2-ylmethyl)indolin-4-yl)-N-(4-fluorophenyl)-2-methylbenzamide] registered an EC50 of 1020 nM.

In the case of `CC1(C)C(=O)N(c2ccccn2)c2nccc(-c3ccc(C(F)(F)F)c(C(=O)Nc4ccc(F)cn4)c3)c21` [Example 28, 5-(3,3-dimethyl-2-oxo-1-(pyridin-2-yl)-2,3-dihydro-1H-pyrrolo[2,3-b]pyridin-4-yl)-N-(5-fluoropyridin-2-yl)-2-(trifluoromethyl)benzamide], the EC50 stood at 36 nM.

Regarding `CC1(C)C(=O)N(c2c[nH]cn2)c2cccc(-c3ccc(C(F)(F)F)c(C(=O)Nc4ccc(F)cc4)c3)c21` [Example 11, 5-(1-(1H-imidazol-4-yl)-3,3-dimethyl-2-oxoindolin-4-yl)-N-(4-fluorophenyl)-2-(trifluoromethyl)benzamide], the EC50 is 41 nM.

`Cc1ncc(-c2cccc3c2C(C)(C)C(=O)N3c2ccccn2)cc1C(=O)Nc1ccc(F)cc1` [Example 12, 5-(3,3-dimethyl-2-oxo-1-(pyridin-2-yl)indolin-4-yl)-N-(4-fluorophenyl)-2-methylnicotinamide] gave an EC50 of 66 nM.

Consider `CC1(C)C(=O)N(c2ncccn2)c2cccc(-c3ccc(C(F)(F)F)c(C(=O)Nc4cccnc4)c3)c21` [Example 21, 5-(3,3-dimethyl-2-oxo-1-(pyrimidin-2-yl)indolin-4-yl)-N-(pyridin-3-yl)-2-(trifluoromethyl)benzamide], for which it took 98 nM to reach a half-maximal effect (EC50).

For the compound `Cc1ncc(-c2cccc3c2C(C)(C)C(=O)N3c2cccnc2)cc1C(=O)Nc1ccc(F)cc1` [Example 13, 5-(3,3-dimethyl-2-oxo-1-(pyridin-3-yl)indolin-4-yl)-N-(4-fluorophenyl)-2-methylnicotinamide], the response was half-maximal at 94 nM (EC50).

In turn, `CC1(C)C(=O)N(c2ncccn2)c2cccc(-c3ccc(C(F)(F)F)c(C(=O)Nc4ccncn4)c3)c21` [Example 48, 5-(3,3-dimethyl-2-oxo-1-(pyrimidin-2-yl)indolin-4-yl)-N-(pyrimidin-4-yl)-2-(trifluoromethyl)benzamide] gave a concentration for a half-maximal effect (EC50) of 73 nM.

Compound `CC1(C)C(=O)N(c2cccc(F)c2F)c2cccc(-c3ccc(C(F)(F)F)c(C(=O)Nc4ccc(F)cc4)c3)c21` [Example 38, 5-(1-(2,3-difluorophenyl)-3,3-dimethyl-2-oxoindolin-4-yl)-N-(4-fluorophenyl)-2-(trifluoromethyl)benzamide] returned a 50% effective concentration (EC50) of 55 nM.

`CC1(C)C(=O)N(c2ccccn2)c2nccc(-c3ccc(C(F)(F)F)c(C(=O)Nc4ccc(F)c(F)c4)c3)c21` [Example 27, N-(3,4-difluorophenyl)-5-(3,3-dimethyl-2-oxo-1-(pyridin-2-yl)-2,3-dihydro-1H-pyrrolo[2,3-b]pyridin-4-yl)-2-(trifluoromethyl)benzamide] had a concentration giving a half-maximal response (EC50) of 63 nM.

As for `CC1(C)C(=O)N(c2cnccn2)c2cccc(-c3ccc(C(F)(F)F)c(C(=O)Nc4ccc(F)cc4)c3)c21` [Example 4, 5-(3,3-dimethyl-2-oxo-1-(pyrazin-2-yl)indolin-4-yl)-N-(4-fluorophenyl)-2-(trifluoromethyl)benzamide], the midpoint of the response, the EC50, lay at 11 nM.

`Cc1ccc(-c2cccc3c2oc(=O)n3-c2cccnc2)cc1C(=O)Nc1ccc(F)cc1` [Example 34, N-(4-fluorophenyl)-2-methyl-5-(2-oxo-3-(pyridin-3-yl)-2,3-dihydrobenzo[d]oxazol-7-yl)benzamide] displayed an EC50 of 19 nM.

Regarding `CC1(C)C(=O)N(c2ncccn2)c2cccc(-c3ccc(C(F)(F)F)c(C(=O)Nc4cncnc4)c3)c21` [Example 47, 5-(3,3-dimethyl-2-oxo-1-(pyrimidin-2-yl)indolin-4-yl)-N-(pyrimidin-5-yl)-2-(trifluoromethyl)benzamide], the EC50 was 810 nM.

In turn, `Cc1ccc(-c2cccc3c2C(C)(C)C(=O)N3c2ncccn2)nc1C(=O)Nc1ccc(F)cc1` [Example 41, 6-(3,3-dimethyl-2-oxo-1-(pyrimidin-2-yl)indolin-4-yl)-N-(4-fluorophenyl)-3-methylpicolinamide] had a concentration giving a half-maximal response (EC50) of 424 nM.
